Assay [1] is described as follows: (§1) Inhibition of Nav in mouse Neuro-2a cells assessed as inhibition of ouabain and veratridine-induced cytotoxicity after 24 hrs by WST-8 assay. It is filed as cell-based. For orientation: Tetrazolium dyes change colour on reduction, which living cells bring about.
The test system of assay [2] is Neuro-2a. The description is as §1. Format: cell-based.

This passage reports EC50 and inhibition results from ChEMBL document CHEMBL3232981, “Isolation of 6-deoxytetrodotoxin from the pufferfish, Takifugu pardalis, and a comparison of the effects of the C-6 and C-11 hydroxy groups of tetrodotoxin on its activity” (J Nat Prod, 2014).

With `NC1=N[C@H](O)[C@H]2[C@H]3O[C@]4(O)O[C@@H]([C@@H](O)[C@@]2(N1)[C@@H]4O)[C@]3(O)CO` [TETRODOTOXIN], the EC50 in assay [1] came to 2.1 nM. In addition, in assay [2], the inhibition result was “Dose-dependent effect”.
Regarding `N=C1N[C@H](O)[C@H]2[C@H]3O[C@]4(O)O[C@H]([C@@H]3CO)[C@@H](O)[C@@]2(N1)[C@@H]4O`, the EC50 in assay [1] was 6.5 nM. Further, the inhibition entry in assay [2] was “Dose-dependent effect”.
The corresponding values for `C[C@H]1[C@H]2O[C@@]3(O)O[C@@H]1[C@@H]1[C@@H](O)NC(=N)N[C@]1([C@@H]2O)[C@@H]3O` are 400 nM and “Dose-dependent effect”.
`C[C@]1(O)[C@@H]2O[C@]3(O)O[C@H]1[C@@H](O)[C@@]1(NC(=N)N[C@H](O)[C@@H]21)[C@@H]3O`: the EC50 in assay [1] was determined as 130 nM. Also, the inhibition entry in assay [2] was “Dose-dependent effect”.

In general, EC50 refers to the midpoint of the concentration-response curve.
